Experimental data from US6384019B1, “Gemcitabine derivatives” (Norsk Hydro ASA, priority 1997, dated 2002).
Where “and” joins values, the source holds several entries; their conditions need not be identical. Equal values may be shown once. Read-outs that look alike come from different tables or passages of the source.

Key:
[1] = test system: murine colon cancer Co-26; assay: Co-26 inoculated intrasplenic to mice, intraperitoneal treatment; assay type: in vivo
Procedure: (§1) The anti tumour effect of Gemcitabine-N^4-elaidic amide or Gemcitabine-5′-elaidic ester were investigated in-vivo in mice in two different tumour types, both with single and repeated dosing
Balb/c female mice were inoculated with the murine colon cancer Co-26 in the spleen on day 0. In this model, tumours develop mainly in the liver. Intraperitoneal treatment was started on day 1. Single doses of the compounds were tested in comparison with Gemcitabine at single dose. Saline was used as control.
In parallel experiment, dosing was repeated on days 1-11

[2] = cited from earlier work
CEM cells = assay: Cytostatic activity in CEM cells with and without nucleoside transport modifiers; assay type: cell-based; details: for Rise in IC50 with the addition of NT inhibitors: with versus without NT inhibitors
Procedure: The cytostatic activity of gemcitabine and gemcitabine-5′-elaidic acid ester in CEM cells was determined with and without the nucleoside transport modifiers Nitrobenzylthioinosine (NBMPR) or Persantine (Pyridamole). […] With the addition of NT inhibitors, there is a ten-fold rise in the IC50 gemcitabine values, while the IC50 gemcitabine-5′-elaidic acid ester is little affected (1.3-1.5 increase).

[3] = test system: murine colon tumour line C26A; assay: Cytotoxicity, continuous drug exposure 72 hours, SRB assay; assay type: cell-based; details: 72 hours continuous exposure, read-out: IC50 cytotoxicity C26-A
Description: (§2) The cytoxicity activity of Gemcitabine-N^4-elaidic amide and Gemcitabine-5′-elaidic ester were investigated in 2 pairs of rodent and human tumour cell lines, each consisting of a parent line and a subline either resistant or cross-resistant to Gemcitabine.
(§3) The cell lines were the human ovarian tumour line A2780 and subline AG6000 which is resistant to Gemcitabine and has a deficiency of deoxycytidine kinase, and the murine colon tumour line C26A and the subline C26G with no altered deoxycytidine kinase but a 10-fold decrease in thymidine kinase I. The cytotoxicity of each compound was evaluated following continuous drug exposure for 72 hours. The cell numbers were determined by SRB assay, and percentage growth inhibition was calculated for each tumour line as IC50 value, given in μM, that is the concentration of the compound giving rise to a 50% growth inhibition compared to control.

[4] = test system: human ovarian tumour line A2780; assay: as above; assay type: cell-based
Description: as §2, §3

[5] = test system: murine lymphatic leukaemia P 388 cells; assay: P-388 ip in mice, single or repeated doses; assay type: in vivo
Description: as §1
B6D2F1 female mice were implanted with the murine lymphatic leukaemia P 388 cells intraperitoneally. Treatments were initiated on day 1 post implantation of cells intraperitoneally. […] Single dose treatment with Gemcitabine-5′-elaidic ester was effective with prolonged survival time and long term survivor observed compared to the same dose of Gemcitabine.

subline C26G = assay: Cytotoxicity, continuous drug exposure 72 hours, SRB assay; assay type: cell-based, murine; details: 72 hours continuous exposure, read-out: IC50 cytotoxicity C2G-G
Description: as §2, §3

[6] = test system: subline AG6000 (resistant to Gemcitabine, deficiency of deoxycytidine kinase); assay: as above; assay type: cell-based, human
Description: as §2, §3

[7] = Co-26, repeated dosing days 1-11, 1 mg/kg
[8] = Co-26, repeated dosing days 1-11, 4 mg/kg
[9] = Co-26, single dose ip day 1, 75 mg/kg
[10] = Co-26, single dose ip day 1, 100 mg/kg
[11] = P-388, repeated dose days 1-4, 15 Mg/kg
[12] = P-388, repeated dose days 1-11, 1 mg/kg
[13] = P-388, repeated dose days 1-11, 4 mg/kg
[14] = P-388, single dose treatment, 75 mg/kg
[15] = P-388, single dose treatment, 100 mg/kg
[16] = Co-26, single dose ip day 1, 25 mg/kg
[17] = P-388, repeated dose days 1-4, 1 Mg/kg
[18] = P-388, repeated dose days 1-4, 4 Mg/kg

SMILES | Long term survivors (>46 d) [1, 7] | Mean survival time T/C [1, 7] | Toxic deaths [1, 7] | Long term survivors (>46 d) [1, 8] | Mean survival time T/C [1, 8] | Toxic deaths [1, 8] | Long term survivors (>35 d) [1, 9] | Mean survival time T/C [1, 9] | Toxic deaths [1, 9] | Long term survivors (>35 d) [1, 10] | Mean survival time T/C [1, 10] | Toxic deaths [1, 10] | Rise in IC50 with the addition of NT inhibitors (CEM cells; CEM cells) | Long term survivors (>45 d) [5, 12] | Mean survival time T/C [5, 12] | Toxic deaths [5, 12] | Long term survivors (>45 d) [5, 13] | Mean survival time T/C [5, 13] | Toxic deaths [5, 13] | Long term survivors (>35 d) [5, 14] | other results
Nc1ccn([C@@H]2O[C@H](CO)[C@@H](O)C2(F)F)c(=O)n1 [Gemcitabine, 2′,2′-difluoro-deoxycytidine] |  2/8 | 170.6% | ⅛ |  0/8 | toxic |  8/8 |  2/7 | 132.8% |  0/7 |  4/7 | 116.2% |  0/7 | ten-fold rise |  0/6 | 178.8% |  0/6 |  0/6 | 71.9% | 6/6 |  0/6 | Plasma concentration that inhibits the anti-cancer effect (saturation of the phosphorylation mechanism) [2]: above 35 μM; Plasma concentration with optimal effect [2]: about 20 μM; IC50 (CEM cells; Homo sapiens, CCRF-CEM, read-out: IC50 Persantine 4 μg/ml): 1260 ± 40 nM; IC50 (CEM cells; Homo sapiens, CCRF-CEM, CEM cells, NBMPR 100 μM, read-out: IC50 NBMPR 100 μM): 1110 ± 80 nM; IC50 (CEM cells; Homo sapiens, CCRF-CEM, CEM cells, no inhibitor, read-out: IC50 No inhibitor): 110 ± 10 nM; IC50 ([3]; Mus musculus): 5.5 nM; IC50 ([4]; Homo sapiens, A2780, 72 hours continuous exposure): 0.5 nM; Long term survivors (>35 d) [5, 11]:  0/6; Mean survival time T/C [5, 11]: 58.0%; Toxic deaths [5, 11]: all animals died of toxicity and  6/6; Mean survival time T/C [5, 14]: 138.9%; Toxic deaths [5, 14]:  0/7; IC50 (subline C26G; Mus musculus): 7.5 nM; IC50 ([6]; Homo sapiens, AG6000, 72 hours continuous exposure): 100000 nM
CCCCCCCC/C=C/CCCCCCCC(=O)OC[C@H]1O[C@@H](n2ccc(N)nc2=O)C(F)(F)[C@@H]1O [Gemcitabine-5′-elaidic ester, Elaidic Acid (5′)-Gemcitabine Ester] | ⅛ | 150.6% |  0/8 | ⅜ | 166.9% |  2/8 |  1/7 | 128.6% |  0/7 |  4/7 | 100.1% |  0/7 | 1.3-1.5 fold |  0/6 | 317.0% |  0/6 |  2/6 | 220.6% |  0/6 | ⅙ | IC50 (CEM cells; CEM cells, NBMPR 100 μM, read-out: IC50 NBMPR 100 μM): 72 ± 34 nM; IC50 (CEM cells; CEM cells, Persantine 4 μg/ml, read-out: IC50 Persantine 4 μg/ml): 65 ± 23 nM; IC50 (CEM cells; CEM cells, no inhibitor, read-out: IC50 No inhibitor): 47 ± 6 nM; Potency relative to the mother drug in the "resistant" situation (CEM cells; CEM cells, with NT inhibitors, versus gemcitabine): 15-20 fold; IC50 [3]: 0.3 nM; IC50 ([4]; 72 hours continuous exposure): < 0.1 nM; Mean survival time T/C [5, 14]: 186.3%; Toxic deaths [5, 14]:  0/6; Long term survivors (>35 d) [5, 15]:  0/6; Mean survival time T/C [5, 15]: 138.9%; Toxic deaths [5, 15]:  0/6; IC50 (subline C26G): 0.5 nM; IC50 ([6]; 72 hours continuous exposure): 100000 nM
CCCCCCCC/C=C/CCCCCCCC(=O)Nc1ccn(C2OC(CO)C(O)C2(F)F)c(=O)n1 (centres unmarked) [Gemcitabine-N^4-elaidic amide, Elaidic Acid (N^4)-Gemcitabine Amide] |  2/8 | 155% |  0/8 | ⅛ | 185.6% |  0/8 | – | – | – | – | – | – | – | ⅙ | 172.5% |  0/6 |  0/6 | 215.7% |  0/6 | – | Long term survivors (>35 d) [1, 16]: 5/8 and ⅝; Mean survival time T/C [1, 16]: 103.7%; Toxic deaths [1, 16]: ⅛; IC50 [3]: < 0.1 nM; IC50 ([4]; 72 hours continuous exposure): < 0.1 nM; Long term survivors (>35 d) [5, 17]:  2/6; Mean survival time T/C [5, 17]: 178%; Toxic deaths [5, 17]:  0/6; Long term survivors (>35 d) [5, 18]: ⅙; Mean survival time T/C [5, 18]: 183%; Toxic deaths [5, 18]:  0/6; IC50 (subline C26G): < 0.1 nM; IC50 ([6]; 72 hours continuous exposure): 35000 nM
